Laboratory results from patent publication US20120289501A1, “Benzene-fused 6-membered oxygen-containing heterocyclic derivatives of bicyclic heteroaryls” (NOVARTIS AG, priority 2009, published 2012).

Each molecule was assayed against IGF1R (Homo sapiens, UniProt P08069) (assay: Cellular IGF-1R assay: inhibition of IGF1R phosphorylation in transduced Hek293 cells, capture ELISA (MSD)).
Format: cell-based
Parameters: Hek293 cells transduced with the corresponding receptors; expressed in transfected cells; host or cells: Hek293 (Hek293-IGF1R)
Outline: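 Serum-starved Hek293 cells transduced with IGF1R or InsR were pre-incubated 1 h with 3-fold dilutions from 10 μM (0.1% DMSO), then stimulated 10 min with 1.0 ng/μL IGF or 5.0 ng/μL insulin. pTyr1135/1136 (pINSR Tyr1150/1151) was read by MSD capture ELISA, normalised to stimulated vs unstimulated window; IC50 from 4-parameter fit.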

Chain of IGF1R (P08069 31-1367): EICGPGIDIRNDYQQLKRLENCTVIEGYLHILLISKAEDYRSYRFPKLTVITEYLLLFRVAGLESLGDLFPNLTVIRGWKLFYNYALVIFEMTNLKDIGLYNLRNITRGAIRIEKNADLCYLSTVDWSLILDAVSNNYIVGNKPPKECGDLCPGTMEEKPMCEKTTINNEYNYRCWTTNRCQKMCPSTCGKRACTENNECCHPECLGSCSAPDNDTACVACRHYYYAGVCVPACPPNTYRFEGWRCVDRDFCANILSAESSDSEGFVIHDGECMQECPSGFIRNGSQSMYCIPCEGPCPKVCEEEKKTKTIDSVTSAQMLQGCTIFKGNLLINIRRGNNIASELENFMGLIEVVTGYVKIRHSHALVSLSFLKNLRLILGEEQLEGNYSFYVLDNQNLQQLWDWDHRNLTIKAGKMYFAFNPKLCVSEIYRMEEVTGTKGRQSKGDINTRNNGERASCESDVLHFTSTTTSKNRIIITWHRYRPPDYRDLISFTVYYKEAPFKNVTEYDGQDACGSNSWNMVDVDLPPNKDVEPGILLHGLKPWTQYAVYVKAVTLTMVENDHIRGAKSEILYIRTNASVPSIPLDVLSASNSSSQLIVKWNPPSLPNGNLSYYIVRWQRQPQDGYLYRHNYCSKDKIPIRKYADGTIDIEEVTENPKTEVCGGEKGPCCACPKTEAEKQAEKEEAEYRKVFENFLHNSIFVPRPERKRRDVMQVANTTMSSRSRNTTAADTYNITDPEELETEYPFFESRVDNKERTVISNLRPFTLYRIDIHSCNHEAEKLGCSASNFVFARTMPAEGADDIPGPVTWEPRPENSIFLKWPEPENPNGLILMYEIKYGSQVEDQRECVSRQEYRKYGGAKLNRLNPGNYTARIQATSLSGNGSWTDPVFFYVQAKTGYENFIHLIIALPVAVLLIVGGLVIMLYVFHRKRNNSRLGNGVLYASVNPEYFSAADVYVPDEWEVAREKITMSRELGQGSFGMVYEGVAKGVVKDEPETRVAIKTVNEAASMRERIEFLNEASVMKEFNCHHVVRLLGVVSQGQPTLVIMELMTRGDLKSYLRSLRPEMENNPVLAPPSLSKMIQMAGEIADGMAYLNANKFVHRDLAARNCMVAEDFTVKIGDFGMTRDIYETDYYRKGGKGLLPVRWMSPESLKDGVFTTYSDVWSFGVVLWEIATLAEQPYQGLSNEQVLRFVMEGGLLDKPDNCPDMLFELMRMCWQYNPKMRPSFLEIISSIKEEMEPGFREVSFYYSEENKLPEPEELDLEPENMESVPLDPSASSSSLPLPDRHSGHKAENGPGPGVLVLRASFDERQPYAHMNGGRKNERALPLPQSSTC

| IC50 [nM] | Structure (SMILES) |
| --- | --- |
| 27 to 106 | Nc1ncnc2c1c(-c1ccc3c(c1)OC(c1ccccc1)CC3)cn2C1CC(O)(CO)C1 (single isomer, unassigned) [Example 26] |
| 9 | Nc1ncnc2c1c(-c1ccc3c(c1)OC(c1ccccc1)C=C3)cn2[C@H]1C[C@@H](CN2CCS(=O)(=O)CC2)C1 (mixture of isomers) [Example 21, (R,S)-7-[cis-3-(1,1-Dioxo-1-thiomorpholin-4-ylmethyl)-cyclobutyl]-5-(2-phenyl-2H-chromen-7-yl)-7H-pyrrolo[2,3-d]pyrimidin-4-ylamine] |
| 22 | CC(=O)NC[C@H]1C[C@@H](n2cc(-c3ccc4c(c3)OC(c3ccccc3)CC4)c3c(N)ncnc32)C1 (mixture of isomers) [Example 16, (R,S)—N-{cis-3-[4-Amino-5-(2-phenyl-chroman-7-yl)-pyrrolo[2,3-d]pyrimidin-7-yl]-cyclobutylmethyl}-acetamide] |
| 11 | CC(=O)N1CCN([C@H]2C[C@@H](n3cc(-c4ccc5c(c4)OC(c4ccccc4)CC5)c4c(N)ncnc43)C2)CC1 (relative stereo) [Example 38, 1-(4-{cis-3-[4-Amino-5-(2-phenyl-chroman-7-yl)-pyrrolo[2,3-d]pyrimidin-7-yl]-cyclobutyl}-piperazin-1-yl)-ethanone] |
